In general, IC50 refers to the concentration needed to halve the response being measured.

The results in this text go back to ChEMBL document CHEMBL5728593, “Small molecule inhibitors of Galectin-3” (2021).

The assay addresses Galectin-3 (Homo sapiens, UniProt P17931). Description: Biological Assay: ASSAY BUFFER Composition: 25 mM HEPES, 100 mM NaCl, 0.005% Tween 20, 0.05% BSA prepared in sterile water (all reagents from Sigma). PROTOCOL: The Gal-3 assays were performed in 384 white Opti plates in three replicates at room temperature with gentle shaking at 250-300 rpm From the original stocks, […] working stock concentrations of His-tagged recombinant human Gal-3 (hGal-3) and that of B-ASF were prepared. From the working stock, 20 μl of hGal-3 (15 nM) and 20 μl B-ASF (15 nM) were added to the plates. In Negative Control, only hGal-3 was added. A concentration range of 50× working stocks were prepared for the compounds in 100% DMSO. Aliquots of 1 uL of the compounds were added to the wells and pre-incubated with 20 μl hGal-3 per well for 30 minutes Then 20 μl B-ASF were added and incubated for another 1 hour. To detect the signal, 5 μ(final conc. of 1.0 nM) terbium labelled Anti-His antibody was added and incubated for 30 min followed by adding 5 μ(final conc. of 20 nM) Streptavidin d2 and incubation for another 1 hour. The assay signal was detected using HTRF screen protocol (Excitation wavelength=340 nm, emission wavelength=615 nm/665 nm) on Envision 2104 Multilabel Reader. Data analysed using Toolset and Curve Master. Results are reported in the experimental section (IC50 in μM).

Each structure is given as a SMILES string.

Chain of Galectin-3 (P17931 whole entry): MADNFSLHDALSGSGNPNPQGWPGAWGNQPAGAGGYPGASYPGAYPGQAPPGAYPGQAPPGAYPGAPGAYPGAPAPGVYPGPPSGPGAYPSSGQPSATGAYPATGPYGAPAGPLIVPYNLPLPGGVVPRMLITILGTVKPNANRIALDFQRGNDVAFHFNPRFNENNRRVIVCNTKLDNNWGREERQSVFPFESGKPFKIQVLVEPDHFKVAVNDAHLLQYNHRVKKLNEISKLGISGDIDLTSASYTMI

For the molecule `NC(=O)CO[C@@H]1[C@@H](n2cc(-c3cc(F)c(F)c(F)c3)nn2)[C@@H](O)[C@@H](CO)O[C@@H]1Sc1ccc(Cl)c(Cl)c1`, the IC50 was 200 nM.

For the molecule `COCCO[C@@H]1[C@@H](n2cc(-c3cc(F)c(F)c(F)c3)nn2)[C@@H](O)[C@@H](CO)O[C@@H]1Sc1ccc(Cl)c(Cl)c1`, the IC50 worked out at 224 nM.
